# Experiments:
# Type in all cases: in vivo
# [1] = system: Psylla pyri; experiment: Field test on pear trees against pear psyllids, kill of L-1 and L-4 nymphs; settings: for Activity (% Abbott) Psylla piri L-1: L-1 nymphs; for Activity (% Abbott) Psylla piri L-4: L-4 nymphs
# Experimental: In 4 replications, pear trees of the cultivar “Conference” of a height of about 3 m are treated against pear psyllids, Psylla pyri. Here, the active compound (I-4′) (100 OD) and the commercial standard Amitraz (UL 400) are applied at the stated application rates. The application is carried out using a knapsack sprayer and an application rate of 1000 l of water/ha. The beneficial species Anthocoris nemoralis appears 14 days after the treatment.
# Evaluation is carried out 4, 8 and 14 days after the treatment by evaluating the kill of the L-1 nymphs and the L-4 nymphs on the branches.
# [2] = system: Myzus persicae; experiment: Myzus persicae test (cabbage leaves sprayed, ladybird larvae added); settings: 4 ppm, active compound alone
# Experimental: (§1) To produce a suitable preparation of active compound, 1 part by weight of active compound is mixed with the stated amounts of solvent and emulsifier, and the concentrate is diluted with emulsifier-containing water to the desired concentration.
# Cabbage leaves (Brassica oleracea) infested by the green peach aphid (Myzus persicae) are treated by being sprayed with the preparation of active compound at the desired concentration.
# After the desired period of time, a defined amount of ladybird larvae (Coccinella septempunctata) is added.
# After the desired period of time, the kill of the pest in % is determined. 100% means that all aphids have been killed; 0% means that none of the aphids have been killed.
# The determined kill rates are entered into Colby's formula.
# [3] = system: Bemisia tabaci; experiment: Bemisia tabaci test (cotton leaves sprayed, mirid bugs added); settings: 0.16 ppm, active compound alone
# Experimental: as §1
# Cotton leaves (Gossypium hirsutum) infested by the whitefly (Bemisia tabacii) are treated by being sprayed with the preparation of active compound at the desired concentration.
# After the desired period of time, a defined amount of mirid bugs (Macrolophus caliginosus) is added.
# After the desired period of time, the kill of the pest in % is determined. 100% means that all whiteflies have been killed; 0% means that none of the whiteflies have been killed. The determined kill rates are entered into Colby's formula.
# [4] = system: Eriosoma lanigerum; experiment: Field test on apple trees against woolly apple aphids, kill according to Abbott
# Experimental: In three replications, in each case three about 25-year old apple trees (crown height about 2 m) of the cultivar “Elan” are treated against woolly apple aphids, Eriosoma lanigerum. Here, the active compound (I-4′) (150 OD) and the commercial standard clothianidin (WG 50) are tested comparatively at the stated application rates in the presence of the woolly aphid parasite (beneficial species) Aphelinus mali. The application is carried out using an atomizer at a water application rate of 500 l/ha. Both one and two applications at an interval of 34 days are carried out.
# Evaluation is carried out 7, 30, 44, 52, 59, 66 and 73 days after the first treatment by evaluating the kill of the adult pests and the number of parasitic pests in each case 10 colonies according to Abbott.
# [5] = 8 d, 400 g/ha/m crown height, UL 400
# [6] = 14 d, 400 g/ha/m crown height, UL 400
# [7] = 8 d, 75 g/ha/m crown height, 100 OD
# [8] = 14 d, 75 g/ha/m crown height, 100 OD
compound,measurement,setting,value
"Cc1ccc(/N=C/N(C)/C=N/c2ccc(C)cc2C)c(C)c1 [Amitraz, reference compound]",Activity (% Abbott) Psylla piri L-1,"[1]; 4 d, 400 g/ha/m crown height, UL 400, pear trees",23.6 % Abbott
same,Activity (% Abbott) Psylla piri L-1,[1]; [5],41.0 % Abbott
same,Activity (% Abbott) Psylla piri L-1,[1]; [6],41.8 % Abbott
same,Activity (% Abbott) Psylla piri L-4,"[1]; 4 d, 400 g/ha/m crown height, UL 400",0.0 % Abbott
same,Activity (% Abbott) Psylla piri L-4,[1]; [5],44.6 % Abbott
same,Activity (% Abbott) Psylla piri L-4,[1]; [6],44.4 % Abbott
CCOC(=O)OC1=C(c2cc(C)ccc2C)C(=O)N[C@]12CC[C@@H](OC)CC2 [Ex. I-4′],Kill in % after 7 d,[2],10%
same,Kill in % after 14 d,[3],0%
same,Activity (% Abbott) Eriosoma lanigerum,"[4]; 7 d, 75 g/ha/m crown height, 150 OD, one treatment, apple trees, Aphelinus mali present",48 % Abbott
same,Activity (% Abbott) Eriosoma lanigerum,"[4]; 30 d, 75 g/ha/m crown height, 150 OD, one treatment",95 % Abbott
same,Activity (% Abbott) Eriosoma lanigerum,"[4]; 44 d, 75 g/ha/m crown height, 150 OD, one treatment",99 % Abbott
same,Activity (% Abbott) Eriosoma lanigerum,"[4]; 52 d, 75 g/ha/m crown height, 150 OD, one treatment",99.4 % Abbott
same,Activity (% Abbott) Eriosoma lanigerum,"[4]; 59 d, 75 g/ha/m crown height, 150 OD, one treatment",98.2 % Abbott
same,Activity (% Abbott) Eriosoma lanigerum,"[4]; 66 d, 75 g/ha/m crown height, 150 OD, one treatment",98 % Abbott
same,Activity (% Abbott) Eriosoma lanigerum,"[4]; 73 d, 75 g/ha/m crown height, 150 OD, one treatment",98 % Abbott
same,Activity against Eriosoma lanigerum,[4]; after two treatments,100%
same,Activity (% Abbott) Psylla piri L-1,"[1]; 4 d, 75 g/ha/m crown height, 100 OD, pear trees",62.7 % Abbott
same,Activity (% Abbott) Psylla piri L-1,[1]; [7],69.5 % Abbott
same,Activity (% Abbott) Psylla piri L-1,[1]; [8],76.6 % Abbott
same,Activity (% Abbott) Psylla piri L-4,"[1]; 4 d, 75 g/ha/m crown height, 100 OD",91.4 % Abbott
same,Activity (% Abbott) Psylla piri L-4,[1]; [7],98.4 % Abbott
same,Activity (% Abbott) Psylla piri L-4,[1]; [8],99.3 % Abbott
"CN/C(=N\[N+](=O)[O-])NCc1cnc(Cl)s1 [Clothianidin, clothianidin, reference compound]",Activity (% Abbott) Eriosoma lanigerum,"[4]; 7 d, 37.5 g/ha/m crown height, WG 50, two treatments, apple trees, Aphelinus mali present",71 % Abbott
same,Activity (% Abbott) Eriosoma lanigerum,"[4]; 30 d, 37.5 g/ha/m crown height, WG 50, two treatments",76 % Abbott
same,Activity (% Abbott) Eriosoma lanigerum,"[4]; 44 d, 37.5 g/ha/m crown height, WG 50, two treatments",85 % Abbott
same,Activity (% Abbott) Eriosoma lanigerum,"[4]; 52 d, 37.5 g/ha/m crown height, WG 50, two treatments",81.8 % Abbott
same,Activity (% Abbott) Eriosoma lanigerum,"[4]; 59 d, 37.5 g/ha/m crown height, WG 50, two treatments",81.8 % Abbott
same,Activity (% Abbott) Eriosoma lanigerum,"[4]; 66 d, 37.5 g/ha/m crown height, WG 50, two treatments",80 % Abbott
same,Activity (% Abbott) Eriosoma lanigerum,"[4]; 73 d, 37.5 g/ha/m crown height, WG 50, two treatments",80 % Abbott
